We go through 2 compounds from US20110086924A1, “Method of manufacturing an eutectic crystalline sugar alcohol” (B Food Science Co., Ltd., priority 2005, published 2011).

Each structure is given as a SMILES string.

The nature of this data set: Dissolving time in water (rate of dissolution). It is filed as physicochemical. The note with it: 10 g in 100 ml water at 20° C.; particle size 150 μm or more but less than 350 μm. An excerpt:
Powder containing an eutectic crystalline sorbitol/maltitol prepared by the same way as that of Example 11 was classified into a part (crude particle part) having a particle size of 350 μm or more but less than 2 mm and a part (powdery product of 150 to 350 μm in particle size) having a particle size of 150 μm or more but less than 350 μm.
In addition, as a control, powdery sorbitol (SORBITOL FP, manufactured by NIKKEN FINE CHEMICALS CO., LTD.), powdery maltitol (AMARTY MR, manufactured by TOWA KASEI CO., LTD.), and a mixture of powdery sorbitol and powdery maltitol (1:1), which were classified so as to have a particle size of 150 μm or more but less than 350 μm (powdery product of 150 to 350 μm in particle size), were prepared.
Ten grams of each of them was poured into 100 ml of water at 20° C. and then subjected to the measurement of dissolving time. Consequently, the crude part of the powder containing an eutectic crystalline sorbitol/maltitol dissolved within 50 seconds, the powdery product of the powder containing an eutectic crystalline sorbitol/maltitol having a particle size of 150 to 350 μm dissolved within 18 seconds, the powdery sorbitol dissolved within 35 seconds, the powdery maltitol dissolved within 54 seconds, and the mixture of the powdery sorbitol and the powdery maltitol dissolved within 46 seconds.

`OC[C@@H](O)[C@@H](O[C@H]1O[C@H](CO)[C@@H](O)[C@H](O)[C@H]1O)[C@H](O)[C@@H](O)CO` [powdery maltitol, maltitol] gave a dissolving time of no more than 54 s. Compound `OC[C@@H](O)[C@@H](O)[C@H](O)[C@@H](O)CO` [powdery sorbitol, sorbitol] showed a dissolving time of no more than 35 s.
